The test concerns the target T1, Nav1.7 (or SCN9A) channel; HEK cells stably transfected with hSCN9A (Homo sapiens, UniProt Q15858).
T1 construct: expressed in transfected cells
In words: Nav1.7 block, PatchXpress 7000 automated whole-cell voltage clamp, estimated IC50 (EIC50). Particulars: PatchXpress platform; hSCN9A HEK cells held at V1/2 of inactivation; estimated IC50. The format is cell-based.
T1 sequence (Q15858 whole entry): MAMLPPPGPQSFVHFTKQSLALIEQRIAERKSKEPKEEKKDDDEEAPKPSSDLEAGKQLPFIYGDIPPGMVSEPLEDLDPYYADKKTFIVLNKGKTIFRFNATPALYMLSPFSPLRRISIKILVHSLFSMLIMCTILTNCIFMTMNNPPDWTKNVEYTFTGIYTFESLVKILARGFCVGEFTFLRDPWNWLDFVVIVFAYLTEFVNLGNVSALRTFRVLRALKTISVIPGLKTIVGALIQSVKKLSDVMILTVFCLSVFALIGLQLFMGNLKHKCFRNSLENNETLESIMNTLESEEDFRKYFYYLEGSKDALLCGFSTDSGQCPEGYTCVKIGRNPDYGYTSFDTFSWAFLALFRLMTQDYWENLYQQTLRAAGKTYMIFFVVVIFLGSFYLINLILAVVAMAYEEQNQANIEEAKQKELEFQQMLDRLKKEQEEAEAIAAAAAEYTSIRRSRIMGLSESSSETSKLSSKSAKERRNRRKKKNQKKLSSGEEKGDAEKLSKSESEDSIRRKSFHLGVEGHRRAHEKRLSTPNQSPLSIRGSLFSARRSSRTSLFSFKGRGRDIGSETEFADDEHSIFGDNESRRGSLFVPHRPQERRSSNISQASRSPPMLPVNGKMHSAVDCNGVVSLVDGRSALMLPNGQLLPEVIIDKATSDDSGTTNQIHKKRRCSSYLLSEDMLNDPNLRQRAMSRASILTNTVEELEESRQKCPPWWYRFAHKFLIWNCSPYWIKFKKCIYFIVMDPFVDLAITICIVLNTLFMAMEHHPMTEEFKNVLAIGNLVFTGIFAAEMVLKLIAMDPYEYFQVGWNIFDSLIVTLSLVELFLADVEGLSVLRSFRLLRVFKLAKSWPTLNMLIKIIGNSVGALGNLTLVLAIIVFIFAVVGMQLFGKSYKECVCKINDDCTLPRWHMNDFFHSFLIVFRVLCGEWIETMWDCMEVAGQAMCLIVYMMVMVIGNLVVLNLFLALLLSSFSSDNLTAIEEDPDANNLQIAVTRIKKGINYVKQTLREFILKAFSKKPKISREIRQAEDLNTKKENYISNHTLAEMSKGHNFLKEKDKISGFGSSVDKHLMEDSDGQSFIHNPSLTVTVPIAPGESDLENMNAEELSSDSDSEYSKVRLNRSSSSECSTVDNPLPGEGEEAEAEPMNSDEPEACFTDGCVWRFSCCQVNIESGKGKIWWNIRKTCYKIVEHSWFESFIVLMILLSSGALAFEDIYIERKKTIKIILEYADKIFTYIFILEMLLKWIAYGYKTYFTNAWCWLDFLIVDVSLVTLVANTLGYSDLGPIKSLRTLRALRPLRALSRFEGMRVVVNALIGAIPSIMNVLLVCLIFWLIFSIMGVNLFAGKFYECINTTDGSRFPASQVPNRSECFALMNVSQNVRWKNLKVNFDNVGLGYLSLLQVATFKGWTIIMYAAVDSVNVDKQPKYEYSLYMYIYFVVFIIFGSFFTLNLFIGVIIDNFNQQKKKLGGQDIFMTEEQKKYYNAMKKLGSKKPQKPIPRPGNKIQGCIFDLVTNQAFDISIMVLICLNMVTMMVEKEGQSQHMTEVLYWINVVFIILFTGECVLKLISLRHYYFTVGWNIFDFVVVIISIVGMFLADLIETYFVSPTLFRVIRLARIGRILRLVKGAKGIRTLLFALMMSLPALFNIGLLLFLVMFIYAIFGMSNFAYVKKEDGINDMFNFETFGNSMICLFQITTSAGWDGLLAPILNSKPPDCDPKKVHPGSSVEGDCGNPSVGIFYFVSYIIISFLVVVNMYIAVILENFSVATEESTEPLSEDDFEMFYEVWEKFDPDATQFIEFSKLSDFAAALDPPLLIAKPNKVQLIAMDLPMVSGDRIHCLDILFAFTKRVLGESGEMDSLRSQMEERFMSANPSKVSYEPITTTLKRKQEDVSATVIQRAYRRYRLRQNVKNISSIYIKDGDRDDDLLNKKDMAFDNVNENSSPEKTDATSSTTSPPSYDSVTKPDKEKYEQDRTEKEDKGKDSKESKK
Take `Cn1ccc(-c2ccc(Oc3ccc(S(=O)(=O)Nc4nccs4)cc3C#N)c(Cl)c2)n1` [Example 178, 4-(2-chloro-4-(1-methyl-1H-pyrazol-3-yl)phenoxy)-3-cyano-N-(thiazol-2-yl)benzenesulfonamide]: the IC50 (usually the concentration that inhibits the measured activity by half) was 3080 nM.

As for `Cn1nccc1-c1ccc(Oc2ccc(S(=O)(=O)Nc3nccs3)cc2C#N)c(Cl)c1` [Example 179, 4-(2-chloro-4-(1-methyl-1H-pyrazol-5-yl)phenoxy)-3-cyano-N-(thiazol-2-yl)benzenesulfonamide], the 50% inhibitory concentration (IC50) was 2190 nM. With `N#Cc1cc(S(=O)(=O)Nc2nccs2)ccc1Oc1ccccc1-c1nncn1-c1ccccc1` [Example 181, 3-cyano-4-(2-(4-phenyl-4H-1,2,4-triazol-3-yl)phenoxy)-N-(thiazol-2-yl)benzenesulfonamide] the figure was above 10000 nM. With `Cn1cnnc1-c1cc(Cl)ccc1Oc1ccc(S(=O)(=O)Nc2nccs2)cc1C#N` [Example 182, 4-(4-chloro-2-(4-methyl-4H-1,2,4-triazol-3-yl)phenoxy)-3-cyano-N-(thiazol-2-yl)benzenesulfonamide] the figure was 930 nM; with `N#Cc1cc(S(=O)(=O)Nc2nccs2)ccc1Oc1ccc(-n2ccc(C(F)(F)F)n2)cc1` [Example 183, 3-cyano-N-thiazol-2-yl-4-[4-(3-trifluoromethyl-pyrazol-1-yl)-phenoxy]-benzenesulfonamide], 990 nM; with `CC(C)(C)n1ccc(-c2ccc(Oc3ccc(S(=O)(=O)Nc4nccs4)cc3C#N)c(F)c2)n1` [Example 184, 4-[4-(1-tert-butyl-1H-pyrazol-3-yl)-2-fluoro-phenoxy]-3-cyano-N-thiazol-2-yl-benzenesulfonamide], 9170 nM.

Regarding `N#Cc1cc(S(=O)(=O)Nc2nccs2)ccc1Oc1ccc(-c2cc[nH]n2)cc1F` [Example 185, 3-cyano-4-[2-fluoro-4-(1H-pyrazol-3-yl)-phenoxy]-N-thiazol-2-yl-benzenesulfonamide], the concentration for half-maximal inhibition (IC50) is 33000 nM. The same measure for `Cc1cc(C)n(-c2ccc(Oc3ccc(S(=O)(=O)Nc4nccs4)cc3C#N)cc2)n1` [Example 186, 3-cyano-4-[4-(3,5-dimethyl-pyrazol-1-yl)-phenoxy]-N-thiazol-2-yl-benzenesulfonamide]: 1050 nM; for `N#Cc1cc(S(=O)(=O)Nc2nccs2)ccc1Oc1ccc(-c2ccccc2)cc1` [Example 187, 4-(biphenyl-4-yloxy)-3-cyano-N-thiazol-2-yl-benzenesulfonamide]: 1670 nM. With `N#Cc1cc(S(=O)(=O)Nc2nccs2)ccc1Oc1cc(-c2ccccc2F)nn1CC(F)(F)F` [Example 188, 3-cyano-4-[5-(2-fluoro-phenyl)-2-(2,2,2-trifluoro-ethyl)-2H-pyrazol-3-yloxy]-N-thiazol-2-yl-benzenesulfonamide] the figure was 9420 nM; with `N#Cc1cc(S(=O)(=O)Nc2nccs2)ccc1Oc1cc(-c2ccc(Cl)cc2)nn1CC(F)(F)F` [Example 189, 4-[5-(4-chloro-phenyl)-2-(2,2,2-trifluoro-ethyl)-2H-pyrazol-3-yloxy]-3-cyano-N-thiazol-2-yl-benzenesulfonamide], 2800 nM. The same measure for `N#Cc1cc(S(=O)(=O)Nc2nccs2)ccc1Oc1cc(-c2ccccc2)nn1CC(F)(F)F` [Example 190, 3-cyano-4-[5-phenyl-2-(2,2,2-trifluoro-ethyl)-2H-pyrazol-3-yloxy]-N-thiazol-2-yl-benzenesulfonamide]: 7710 nM.

For `N#Cc1cc(S(=O)(=O)Nc2nccs2)ccc1Oc1cc(C2CC2)nn1-c1ccccn1` [Example 191, 3-cyano-4-(5-cyclopropyl-2-pyridin-2-yl-2H-pyrazol-3-yloxy)-N-thiazol-2-yl-benzenesulfonamide], the IC50 was above 10000 nM. With `N#Cc1cc(S(=O)(=O)Nc2nccs2)ccc1Oc1cc(C2CC2)nn1C1CCCCC1` [Example 192, 3-Cyano-4-(2-cyclohexyl-5-cyclopropyl-2H-pyrazol-3-yloxy)-N-thiazol-2-yl-benzenesulfonamide] the figure was 2050 nM; with `N#Cc1cc(S(=O)(=O)Nc2nccs2)ccc1Oc1cc(C2CC2)nn1-c1ccccc1F` [Example 193, 3-cyano-4-[5-cyclopropyl-2-(2-fluoro-phenyl)-2H-pyrazol-3-yloxy]-N-thiazol-2-yl-benzenesulfonamide], 1230 nM; with `N#Cc1cc(S(=O)(=O)Nc2nccs2)ccc1Oc1cc(C2CC2)nn1CC(F)(F)F` [Example 194, 3-Cyano-4-[5-cyclopropyl-2-(2,2,2-trifluoro-ethyl)-2H-pyrazol-3-yloxy]-N-thiazol-2-yl-benzenesulfonamide], 36800 nM.

As to `N#Cc1cc(S(=O)(=O)Nc2nccs2)ccc1Oc1cc(C2CC2)nn1-c1cc(F)ccc1F` [Example 195, 3-Cyano-4-[5-cyclopropyl-2-(2,5-difluoro-phenyl)-2H-pyrazol-3-yloxy]-N-thiazol-2-yl-benzenesulfonamide], the concentration for half-maximal inhibition (IC50) was 1080 nM. With `Cn1ncc(F)c1-c1cc(Cl)ccc1Oc1ccc(S(=O)(=O)Nc2nccs2)cc1C#N` [Example 196, 4-[4-Chloro-2-(4-fluoro-2-methyl-2H-pyrazol-3-yl)-phenoxy]-3-cyano-N-thiazol-2-yl-benzenesulfonamide] the figure was 30 nM; with `Cc1c(Cl)ccc(Oc2ccc(S(=O)(=O)Nc3nccs3)cc2C#N)c1-c1nnco1` [Example 197, 4-(4-chloro-3-methyl-2-[1,3,4]oxadiazol-2-yl-phenoxy)-3-cyano-N-thiazol-2-yl-benzenesulfonamide], 1130 nM.

Turning to `CC(C)(C)n1nccc1-c1c(Cl)cccc1Oc1ccc(S(=O)(=O)Nc2nccs2)cc1C#N` [Example 198, 4-[2-(2-tert-butyl-2H-pyrazol-3-yl)-3-chloro-phenoxy]-3-cyano-N-thiazol-2-yl-benzenesulfonamide], the IC50 was 2470 nM. The same measure for `N#Cc1cc(S(=O)(=O)Nc2nccs2)ccc1Oc1cccc(Cl)c1-c1ccn[nH]1` [Example 199, 4-[3-chloro-2-(2H-pyrazol-3-yl)-phenoxy]-3-cyano-N-thiazol-2-yl-benzenesulfonamide]: 110 nM; for `Cc1n[nH]cc1-c1ccccc1Oc1ccc(S(=O)(=O)Nc2nccs2)cc1C#N` [Example 200, 3-cyano-4-(2-(3-methyl-1H-pyrazol-4-yl)phenoxy)-N-(thiazol-2-yl)benzenesulfonamide]: 100 nM. With `N#Cc1cc(S(=O)(=O)Nc2nccs2)ccc1Oc1ccc(F)cc1-c1ccc(CCO)cc1` [Example 201, 3-cyano-4-{[5-fluoro-4′-(2-hydroxyethyl)biphenyl-2-yl]oxy}-N-1,3-thiazol-2-ylbenzenesulfonamide] the figure was 420 nM; with `N#Cc1cc(S(=O)(=O)Nc2nccs2)ccc1Oc1ccc(-c2cc(C(F)(F)F)n[nH]2)cc1` [Example 202, 3-cyano-N-thiazol-2-yl-4-[4-(5-trifluoromethyl-2H-pyrazol-3-yl)-phenoxy]-benzenesulfonamide], 600 nM; with `NC(=O)c1cc(S(=O)(=O)Nc2nccs2)ccc1Oc1ccc(-c2cc(C(F)(F)F)n[nH]2)cc1` [Example 203, 5-(N-thiazol-2-ylsulfamoyl)-2-(4-(3-(trifluoromethyl)-1H-pyrazol-5-yl)phenoxy)benzamide], 7480 nM.

Consider `O=S(=O)(Nc1ncns1)c1ccc(Oc2ccn(Cc3ccc(Cl)cc3)n2)c(C(F)(F)F)c1` [Example 204, 4-{[1-(4-chlorobenzyl)-1H-pyrazol-3-yl]oxy}-N-1,2,4-thiadiazol-5-yl-3-(trifluoromethyl)benzenesulfonamide], for which the IC50 is 3140 nM. The same measure for `O=S(=O)(Nc1ncns1)c1ccc(Oc2ccccc2-c2ccccc2)c(C(F)(F)F)c1` [Example 205, 4-(biphenyl-2-yloxy)-N-1,2,4-thiadiazol-5-yl-3-(trifluoromethyl)benzenesulfonamide]: 330 nM. The same measure for `O=S(=O)(Nc1nccs1)c1ccc(Oc2cnn(Cc3ccc(Cl)cc3)c2)cc1F` [Example 206, 4-(1-(4-chlorobenzyl)-1H-pyrazol-4-yloxy)-2-fluoro-N-(thiazol-2-yl)benzenesulfonamide]: 1190 nM. Regarding `COc1ccccc1-c1ccccc1Oc1ccc(S(=O)(=O)Nc2nccs2)c(F)c1` [Example 207, 2-fluoro-4-(2′-methoxybiphenyl-2-yloxy)-N-(thiazol-2-yl)benzenesulfonamide], the IC50 is 1030 nM. For `COc1ccccc1-c1ccccc1Oc1ccc(S(=O)(=O)Nc2nccs2)c(F)c1` [Example 208, 2-fluoro-4-(2′-methoxybiphenyl-2-yloxy)-N-(thiazol-2-yl)benzenesulfonamide], the IC50 was 130 nM.

`O=S(=O)(Nc1nccs1)c1ccc(Oc2ccc(-c3ccccc3)cc2)cc1F` [Example 209, 4-(biphenyl-4-yloxy)-2-fluoro-N-(thiazol-2-yl)benzenesulfonamide]: the IC50 is 590 nM. In the case of `O=S(=O)(Nc1nccs1)c1ccc(Oc2cccc(-c3ccccc3)c2)cc1F` [Example 210, 4-(biphenyl-3-yloxy)-2-fluoro-N-(thiazol-2-yl)benzenesulfonamide], the IC50 is 1370 nM. With `O=S(=O)(Nc1nccs1)c1ccc(Oc2ccc(Cl)cc2-c2ccnn2-c2ccccc2)cc1F` [Example 211, 4-(4-chloro-2-(1-phenyl-1H-pyrazol-5-yl)phenoxy)-2-fluoro-N-(thiazol-2-yl)benzenesulfonamide] the figure was 110 nM; with `CC(C)(C)n1ccc(-c2cc(F)ccc2Oc2ccc(S(=O)(=O)Nc3nccs3)c(F)c2)n1` [Example 212, 4-(2-(1-tert-butyl-1H-pyrazol-3-yl)-4-fluorophenoxy)-2-fluoro-N-(thiazol-2-yl)benzenesulfonamide], 15400 nM.

For the molecule `O=S(=O)(Nc1nccs1)c1ccc(Oc2ccc(F)cc2-c2ccn[nH]2)cc1F` [Example 213, 2-fluoro-4-(4-fluoro-2-(1H-pyrazol-5-yl)phenoxy)-N-(thiazol-2-yl)benzenesulfonamide], the IC50 was 1600 nM. The same measure for `O=S(=O)(Nc1nccs1)c1ccc(Oc2nc(Cc3ccc(Cl)cc3)cs2)cc1F` [Example 214, 4-[4-(4-chloro-benzyl)-thiazol-2-yloxy]-2-fluoro-N-thiazol-2-yl-benzenesulfonamide]: 2410 nM.

Values taken from patent US8541588B2, “Sulfonamide derivatives” (Pfizer Limited, priority 2009, dated 2013).
